# What was measured:
# HeLa cells = assay: Live cell imaging of H2S2 formation with SSP4; assay type: cell-based; conditions: 30 min
# Experimental: HeLa cells were seeded at ~7000 cells/well in a 96-well clear flat-bottomed BioLite plate (ThermoFisher Scientific, #130188) in DMEM/F12 (1:1) (Gibco, Invitrogen, #11330-032) medium supplemented with 10% fetal bovine serum (FBS) at 37° C., 5% CO2 overnight.
# Preparation before cell treatment: Na2S and Na2S2 stocks were prepared at 10 mM in sterile 1×PBS. TTS and TT were prepared at 10 mM concentrations in DMSO. They were then diluted to 50 μM concentrations in serum-free Fluorobrite DMEM in individual Eppendorf tubes (0.5% DMSO). Na2S (final concentration=100 μM) was added to the Eppendorf tube containing Fluorobrite DMEM and TTS or TT immediately before being added to the cells. Compounds were mixed by pipetting up and down prior to cell addition.
# Cell treatment: Culturing media was aspirated from all wells, and cells were washed twice with 1×PBS. Compounds were added to cells (200 μL/well) and incubated for 30 min at 37° C., 5% CO2. While cells were incubating, SSP4 treatment was prepared by first adding 5 mM CTAB in ethanol to Fluorobrite DMEM followed by 6.125 mM SSP4 in DMSO to final concentrations of 100 μM and 5 μM, respectively, in a tube. The final volume was 5 mL (0.08% DMSO). Compounds were mixed by pipetting up and down prior to cell addition. After incubation, media was aspirated, and cells were washed twice with 1×PBS. SSP4 treatment was added to all wells (100 μL/well), and cells were incubated for 30 min at 37° C., 5% CO2 for 30 min. Media was then aspirated, and cells were washed three times with 1×PBS. Fluorobrite DMEM was added to all wells before imaging on the Keyence All-in-One Fluorescence Microscope (BZ-X810) (excitation: 470/40 nm; emission: 525/50 nm).
# As shown in FIGS. 4(A)-(D), HeLa cells were treated with TTS, TTS+H2S, or TT for 30 min before the fluorescent sensor SSP4 was applied to the cells to monitor the formation of H2S2. […] Na2S2 was used as the positive control in this study (FIG. 4D). Other control studies including TT+H2S, H2S only, and SSP4 only were also performed. […] FIG. 4H is a graph of fluorescence intensities of SSP4 staining. Data are mean values ±SEM calculated using ImageJ. (n=9, where three different images were obtained from each of three samples and quantified).
# [1] = SSP4 fluorescence assay to determine generation of H2S2 in buffer
# Description: To further evaluate the specificity of TTS in converting H2S to H2S2, SSP4 was used to monitor the formation of H2S2 in this reaction and the results were compared with a series of controls. Details of the SSP4 experiments are provided later herein. SSP4 is a well-established fluorescent sensor for sulfane sulfurs including H2S2. See Shieh, M. et al., Shining a light on SSP4: a comprehensive analysis and biological applications for the detection of sulfane sulfurs. Redox Biol. 2022, 56, 102433. […] Without wishing to be bound by scientific theory, it is believed that thiols would compete with SSP4 to react with H2S2, thereby causing decreased signals.
# SSP4 was dissolved in DMSO to obtain a 200 μM stock solution. CTAB was dissolved in ethanol to yield a 2 mM stock solution. TTS and TT were dissolved in DMSO to make 1 mM stock solutions. Na2S, Na2S2, and L-cysteine were prepared in MilliQ H2O to obtain stock solutions at 2 mM, 1 mM, and 4 mM, respectively. 50 mM PBS buffer was added to individual wells of a black polystyrene, flat-bottomed clear 96-well plate, followed by TTS (25 μM) or TT (25 μM), and Na2S (50 μM), cysteine (100 μM), or Na2S2 (25 μM). For the interference assay, TTS or TT (25 μM) were added to wells with or without Na2S (50 μM). Samples were mixed by pipetting up and down and incubated in the dark at room temperature (rt) for 30 min. Next, CTAB (50 μM) was added to all wells followed by SSP4 (5 μM), and samples were mixed by pipetting up and down. The final volume was 200 μL in each well. Samples were then incubated in the dark at room temperature for another 30 min before being measured on a Molecular Devices SpectraMax iD3 Multi-Mode Microplate Reader (emission 525 nm; excitation 485 nm; integration time […], low PMT sensitivity, attenuation 1, read height 1.00 mm).
smiles,measurement,setting,value
"COC(=O)c1ccc(=S=O)sc1 [TTS, 2H-thiopyran-2-thione sulfine]",SSP4 fluorescence in HeLa cells,HeLa cells; compound 50 μM + Na2S 100 μM,Significant green fluorescence
same,SSP4 fluorescence in HeLa cells,HeLa cells; compound only,did not show obvious fluorescence
same,SSP4 fluorescence in interference experiments with thiols,[1]; 25 μM TTS + 50 μM Na2S + 200 μM Cys or 1 mM GSH,decreased but still significant fluorescence
same,SSP4 fluorescence response (H2S2 formation),"[1]; 25 μM compound + 50 μM Na2S (H2S), PBS, SSP4 5 μM",significant fluorescence response
same,SSP4 fluorescence response (sulfane sulfur formation),"[1]; 25 μM compound + 100 μM Cys, SSP4 5 μM",No fluorescence
same,SSP4 fluorescence response (H2S2 formation),"[1]; 25 μM compound only, SSP4 5 μM",No fluorescence
